{
  "source": "patent US6011041A",
  "about": "“Use of anhydrovinblastine” (priority 1996, dated 2000)",
  "key": {"C-4 cells": {"system": "C-4 cells", "assay": "cytotoxicity on C-4 cells (FIG. 8)", "format": "cell-based", "details": "72 h; C-4, 3 day incubation", "procedure": "A wide range of drug concentrations were exposed to tumour cells growing at log phase in 96-well microtitre plates. Cell concentrations depended on the cell line as well as the length of time to be cultured. Typically, P388 cells were plated at a concentration of 30,000, 2,000 and 750 cells per well for studies lasting 1, 3 and 7 days, respectively MCF7 cells were plated at a concentration of 7,000 and 1,500 cells per well for studies lasting 3 and 7 days, respectively. H460 cells were plated at a concentration of 2,500 and 1,000 cells per well for studies lasting 3 and 7 days, respectively. K562 cells were plated at a concentration of 1,500 and 10,000 cells per well for studies lasting 1 and 3 days, respectively. LS180 cells were plated at a concentration of 5,000 and […] cells per well for studies lasting 3 and 7 days, respectively. After plating all cell lines were incubated (CO2 incubator at 37° C., 5% CO2) for 24 hours prior to addition of the cytotoxic agent (See Table 1). Subsequently the plates were incubated for the indicated time period. […] After the sample was mixed through repeated pipetting, the colored product was measured using a plate reader operating at 570 nm. The absorbance values obtained for cells cultured in the absence of drug was assumed to represent 100% viability. […]"}, "P388 tumor": {"system": "P388 tumor", "assay": "P388 tumour antitumor activity and maximum tolerated dose in BDF1 mice (FIGS. 6, 7)", "format": "in vivo", "procedure": "(§1) Antitumour studies in mice focused on the P388 leukemia model. […] This is an ascitic tumour model that was generated by intraperitoneal inoculation of 1×10^6 P388 cells (derived from culture, with an original cell line obtained from the NCI tumour repository) in BDF1 mice (Charles Rivers). One day after tumour cell inoculation, mice were treated with a single intravenous injection of drug. Animal weight was monitored daily and tumour progression was measured as an increase in animal weight and through estimation of survival time. Therapy was described by a decrease in tumour progression and an increase in survival time relative to an untreated control group. Initial studies established the maximum therapeutic dose for AHVB. Subsequently comparative studies with vincristine and navelbine were initiated where animals were treated with each drug at the maximum therapeutic dose.\n(§2) The in vivo antitumour activity of AHVB was compared to that of vincristine, navelbine in the BDF1-murine P388 model in the procedure as follows. P388 cells were derived from the ascities of previously injected female BDF1 mice (19-21 grams) P388 cells, from the NCI tumor repository were inoculated directly into mice. The cells arrive from NCI frozen in 1 ml aliquots. These samples were thawed rapidly at 37° C. and subsequently injected (within 1 hour) intraperitoneally into two mice, 0.5 ml per mouse. One week (7 days) after inoculation, the tumor cells were harvested by removing peritoneal fluid using a sterile syringe with a 22 gauge needle. The cells, pooled from two animals, were counted using a heamocytometer, diluted (RPMI media) to a concentration of 2×10^6 cells/ml and 0.5 ml was then re-injected into each of two BDF1 mice. Remaining cells were washed and placed into a DMSO containing media and frozen (in freezer packs that cool at a defined rate). This process was repeated weekly over a […]. Cells used for anti-tumor studies were collected from the third passage to the 20th passage. After the 20th passage the cells were no longer used for experimental studies. Newly established cells were derived from the frozen cells prepared as described above.\n(§3) Groups (five mice per group) of female BDFI mice (Charles Rivers, Canada) were injected (intraperitoneal) with 10^6 P388 cells (as described above). One day after tumor cell inoculation, the mice were given a bolus intravenous injection of indicated drug via the lateral tail vein. […] Following administration of the test articles, animals were weighed daily for fourteen days and monitored for signs of stress twice daily for the first 14 days (once daily on weekends) and once daily for the remainder of the study. Severely distressed animals were terminated by CO2 asphyxiation and the time of death was recorded to occur on the following day. […]"}, "[1]": {"assay": "P388 tumour antitumor activity and maximum tolerated dose in BDF1 mice (FIGS. 6, 7)", "format": "in vivo", "details": "mouse, in vivo, iv; BDF1 mice bearing P388 tumors, single i.v. injection", "procedure": "as §1, §2, §3"}, "SKOV3 cells": {"system": "SKOV3 cells", "assay": "cytotoxicity on SKOV3 cells (FIG. 8)", "format": "cell-based", "details": "Homo sapiens, SK-OV-3, 72 h; SKOV3, 3 day incubation"}, "[2]": {"system": "fast axoplasmic transport in nerve cells", "details": "cited from earlier work"}, "human rhabdosarcomas": {"system": "human rhabdosarcomas", "details": "in vivo; cited from earlier work"}, "[3]": {"details": "relative to other vinca alkaloids; cited from earlier work"}, "nerves": {"system": "nerves", "details": "vs vinblastine, vindesine; cited from earlier work"}, "tumour": {"system": "tumour", "details": "alkaloids extracted from Vinca rosea; cited from earlier work"}, "L1210 leukemia": {"system": "L1210 leukemia", "details": "cited from earlier work"}, "[4]": {"system": "non-small cell lung cancer", "details": "patients; cited from earlier work"}, "[5]": {"system": "cells derived from human lung cancer", "details": "cited from earlier work"}, "murine P388 leukemia": {"system": "murine P388 leukemia", "details": "cited from earlier work"}},
  "note": "Counter-ions that a name gives are not always drawn.",
  "data": [
    {"smiles": "CCC1=CC2CN(CCc3c([nH]c4ccccc34)C(C(=O)OC)(c3cc4c(cc3OC)N(C)C3C(O)(C(=O)OC)C(OC(C)=O)C5(CC)C=CCN6CCC43C65)C2)C1", "note": "(stereo not drawn) [AHVB, 3',4'-anhydrovinblastine]", "values": [
      {"measurement": "IC50", "setting": "C-4 cells", "result": 0.02, "unit": "µM"},
      {"measurement": "times less toxic (on a weight basis) than vincristine", "setting": "P388 tumor; BDF1 mice bearing P388, single i.v.", "result": "approximately 10 times"},
      {"measurement": "antitumor activity (number of long term survivors, >60 days)", "setting": "P388 tumor; maximum tolerated dose, AHVB 40 mg/kg vs vincristine 3 mg/kg, single i.v.", "result": "significantly better than that observed for vincristine"},
      {"measurement": "in vivo antitumor efficacy relative to other vinca alkaloids such as vincristine and navelbine", "setting": "P388 tumor; overall conclusion", "result": "significant improvements in in vivo antitumor efficacy"},
      {"measurement": "MTD", "setting": "[1]", "result": 40, "unit": "mg/kg"},
      {"measurement": "IC50", "setting": "SKOV3 cells", "result": 4, "unit": "µM"}
    ]},
    {"smiles": "CC[C@]1(O)C[C@H]2CN(CCc3c([nH]c4ccccc34)[C@@](C(=O)OC)(c3cc4c(cc3OC)N(C=O)[C@H]3[C@@](O)(C(=O)OC)[C@H](OC(C)=O)[C@]5(CC)C=CCN6CC[C@]43[C@@H]65)C2)C1", "note": "[vincristine, Sulfate of 22-oxovincaleukoblastine]", "values": [
      {"measurement": "potency in blocking fast axoplasmic transport", "setting": "[2]", "result": "more potent than vinblastine or vindesine"},
      {"measurement": "activity in human rhabdosarcomas transplanted in nude mice", "setting": "human rhabdosarcomas", "result": "very effective"},
      {"measurement": "terminal elimination phase of plasma clearance", "setting": "[3]", "result": "extended terminal elimination phase of plasma clearance"},
      {"measurement": "uptake into nerves, times faster than the other drugs", "setting": "nerves", "result": 4, "unit": "times"},
      {"measurement": "antitumour activity", "setting": "tumour", "result": "significant antitumour activity"}
    ]},
    {"smiles": "CCC1=C[C@@H]2CN(C1)Cc1c([nH]c3ccccc13)[C@@](C(=O)OC)(c1cc3c(cc1OC)N(C)[C@H]1[C@@](O)(C(=O)OC)[C@H](OC(C)=O)[C@]4(CC)C=CCN5CC[C@]31[C@@H]54)C2", "note": "[navelbine, 3',4'-didehydro-4'-deoxy-C'-norvincaleukoblastine-di-L-tartrate]", "values": [
      {"measurement": "potency against L1210 leukemia", "setting": "L1210 leukemia", "result": "less potent than vinbiastine and vincristine"},
      {"measurement": "clinical utility in non-small cell lung cancer", "setting": "[4]", "result": "support its utility in treating non-small cell lung cancer"},
      {"measurement": "activity against cells derived from human lung cancer", "setting": "[5]", "result": "active"},
      {"measurement": "potency against murine P388 leukemia", "setting": "murine P388 leukemia", "result": "less potent than vinbiastine and vincristine"}
    ]}
  ]
}
